Source: the NIST ThermoML archive (doi:10.1016/j.fluid.2010.08.027)
± gives the expanded uncertainty stated by the source.

Settings: 101.33 kPa, Liquid, Vibrating tube method

Row | SMILES | mass density (303.15 K) [kg/m3] | mass density (308.15 K) [kg/m3] | mass density (313.15 K) [kg/m3] | mass density (318.15 K) [kg/m3] | mass density (323.15 K) [kg/m3] | mass density (328.15 K) [kg/m3] | mass density (333.15 K) [kg/m3] | mass density (338.15 K) [kg/m3] | mass density (343.15 K) [kg/m3] | mass density (348.15 K) [kg/m3] | mass density (353.15 K) [kg/m3]
1 | Cn1cc[n+](CCO)c1.F[P-](F)(F)(F)(F)F [3-(2-hydroxyethyl)-1-methylimidazolium hexafluorophosphate] | 1555.6 ± 2.2 | 1550.8 ± 2.2 | 1546 ± 2.2 | 1541.1 ± 2.2 | 1536.4 ± 2.2 | 1531.8 ± 2.2 | 1527.2 ± 2.2 | 1522.6 ± 2.2 | 1518.2 ± 2.2 | 1513.6 ± 2.2 | 1508.7 ± 2.1
2 | Cn1cc[n+](CCO)c1.O=S(=O)([N-]S(=O)(=O)C(F)(F)F)C(F)(F)F | 1589.4 ± 2.3 | 1584.2 ± 2.3 | 1578.9 ± 2.3 | 1574.2 ± 2.3 | 1568.7 ± 2.3 | 1563.7 ± 2.3 | 1558.7 ± 2.3 | 1553.7 ± 2.2 | 1548.8 ± 2.2 | 1544 ± 2.2 | 1538.6 ± 2.2
3 | Cn1cc[n+](CCO)c1.O=S(=O)([O-])C(F)(F)F | 1444 ± 2 | – | 1436.1 ± 2 | – | 1428 ± 2 | – | 1420.5 ± 1.9 | – | 1410.8 ± 1.9 | – | 1400.5 ± 1.9
